Source: US20070116785A1, “Nitric oxide as an anti-viral agent, vaccine and vaccine adjuvant” (priority 2005, published 2007)
“Also recorded” adds a separate entry of the source.

What was measured:
[1] = system: influenza A/Victoria/H3N2; test: Plaque assay in MDCK cells with gNO-exposed virus, several concentrations and dosing techniques (Example 2); assay type: cell-based
[2] = system: Highly Pathogenic Avian Influenza (HPAI) H7N3; assay type: cell-based
Bovine Respiratory Virus = test: In vivo bovine feedlot study (Example 6); design: species or system calves
Method: A similar in vivo bovine study as in Example 5 was conducted with one hundred and fifty-eight (158) calves. The calves were shipped into a commercial feedlot, wherein some of the animals at the feedlot were infected with BRV. The […] calves were treated with either: (1) 4 minutes of approximately 160-260 ppm nitric oxide gas (30-60 breaths); or (2) conventional antibiotic, antiviral and immunization medications. 42 calves were treated with gNO, while 116 calves were treated with conventional antibiotics.

[3] = system: Bovine Respiratory Disease (BRD)
influenza A virus = test: Plaque assay in MDCK cells with virus exposed to nitric oxide gas (Example 1); assay type: cell-based; conditions: virus exposed to 160 ppm nitric oxide gas for 1, 2 and 3 hours; vs air control; FIG. 1
influenza A/H3N2 = test: Plaque assay in MDCK cells with gNO-exposed virus (Example 2); assay type: cell-based

Compound: [N]=O [gNO, Nitric oxide]
- infectivity of influenza A/Victoria/H3N2 ([1]; 40 ppm gNO continuously over 4 hours, FIG. 10): no effect
- infectivity of influenza A/Victoria/H3N2 ([1]; 80 ppm gNO continuously for 4 hours, FIG. 7, 10): not effective; also recorded: no effect
- infectivity of influenza A/Victoria/H3N2 ([1]; 160 ppm gNO and above (160 ppm and 800 ppm), continuously over 4 hours, vs controls and lower concentrations, FIG. 11): effective in reducing the infectivity
- concentration of influenza A/Victoria/H3N2 ([1]; 160 ppm gNO for 4 continuous hours, FIG. 8): effective in reducing the concentration of influenza A/Victoria/H3N2; also recorded: significant effect
- infectivity of influenza A/Victoria/H3N2 ([1]; 800 ppm gNO continuously over 4 hours, FIG. 11): no real improved effect compared to 160 ppm
- infectivity of influenza A/Victoria/H3N2 ([1]; intermittent 160 ppm gNO, 30 minutes once every hour for 4 hours, FIG. 12): more effective than the single 30 minute exposure; also recorded: effective as an anti-infective agent against influenza A/Victoria/H3N2
- concentration of influenza A/Victoria/H3N2 ([1]; single 30 minute exposure to 160 ppm gNO, tracked over 4 hours, FIG. 9, 12): effective in reducing concentration of influenza A/Victoria/H3N2; also recorded: as effective as three (3) thirty (30) minute doses of gNO
- concentration of HPAI H7N3 [2]: about 330 PFU/mL
- infectivity of HPAI H7N3, continuous exposure compared with single treatment [2]: comparatively better than the single treatment
- infectivity of HPAI H7N3 ([2]; after 3 hours): under 50 PFU/mL
- calves exhibiting clinical signs of infection (Bovine Respiratory Virus) (Bovine Respiratory Virus; after 15 days, 4 minutes of approximately 160-260 ppm nitric oxide gas (30-60 breaths), 4/42): 9.5%
- effectiveness as antiviral agent reducing infectivity relative to conventional vaccines, antiviral agents and antibiotics (Bovine Respiratory Virus; feedlot calves, 15 days): almost twice as effective
- clinical scores (industry standard signs) ([3]; 160 ppm gNO, prophylactic vs early detection group, FIG. 17): more effective in achieving low clinical scores for the prophylactic group than for the early detection group
- IRT Temperature ([3]; 160 ppm gNO, prophylactic vs early detection group, FIG. 18): more effective in achieving low IRT temperatures for the prophylactic group than for the early detection group
- calves' temperatures and clinical scores ([3]; NO given at Early Detection (IRT) or at Clinical Detection): rapidly resolved
- infection after 6 months ([3]; all NO treated animals regardless of dosing/timing, induction herd: 13 out of 15 required antibiotic treatment): none of the NO treated animals demonstrated infection
- prevention of infection ([3]; bovine, in vivo): effective in preventing infection
- safety of delivery ([3]; bovine, in vivo): delivered safely without incident
- Mean Temperature (IRT) ([3]; prophylactic group, mean over 10 days, […], FIG. 16): roughly 36.1 °C
- influenza A virus in MDCK cell cultures (plaques) (influenza A virus): significantly less influenza A virus as compared to the air control
- infectivity of influenza A/H3N2 (influenza A/H3N2; 80 ppm gNO continuously for 4 hours, FIG. 4): not as effective as the 160 ppm concentration
- concentration of influenza A/H3N2 (viruses capable of infecting a cell) (influenza A/H3N2; 160 ppm gNO for 1, 2 and 3 hours, vs room air control, FIG. 2): significantly reduced the concentration of influenza A/H3N2
- concentration of influenza A/H3N2 (influenza A/H3N2; single 30 minute exposure to 160 ppm gNO, plaque assay to 20 hours after exposure, FIG. 5): decreases concentration of influenza A/H3N2 over 20 hours
